Read-outs that look alike come from different tables or passages of the source.
Columns and labels:
[1] = test system: metabolically active cells; experiment: Cell viability luminescence assay; format: cell-based; conditions: 24 hours incubation
Protocol: Compound toxicity was measured in a luminescence assay that gives a signal proportional to the amount of metabolically active cells in the sample; the assay was performed as described by the supplier. All synthesized compounds were tested in the viability assay, and viability was registered at 24 hours and 72 hours.

[2] = test system: PLB-Ser^16 phosphorylation; experiment: PLB-Ser16 phosphorylation in isoproterenol-stimulated rat neonatal cardiomyocytes (western blot); format: cell-based; conditions: for Effect on PLB phosphorylation in cardiomyocytes / effect on PLB phosphorylation: rat neonatal cardiomyocytes; for Effect on PLB phosphorylation in cardiomyocytes: compounds 24 hours prior isoproterenol (100 nM, 5 minutes); for IC50: Rattus norvegicus, Cardiomyocyte, read-out: half-maximal effect, inhibition of phospholamban phosphorylation; for effect on PLB phosphorylation: Example 53
Protocol: FIG. 7: Disruption of the AKAP18δ-PLB complex influences PLB-Ser^16 phosphorylation. Rat neonatal cardiomyocytes treated with compounds 24 hours prior stimulation with isoproterenol (100 nM, 5 minutes).
(§1) FIG. 9: Disruption of the AKAP18δ-PLB complex influences PLB-Ser^16 phosphorylation. Rat neonatal cardiomyocytes treated with compound 2g (A) or 3d (C) 24 hours prior stimulation with isoproterenol (100 nM, 5 minutes). Rat adult cardiomyocytes treated with compound 2g (B) 1 hour prior to stimulation with isoproterenol (10 nM, 5 minutes). The histograms show levels of phosphorylated Ser^16-PLB quantified by densitometry on Western blots (relative to actin levels).
Based on data from studies in cardiomyocytes assay using a peptide that blocks AKAP18δ-PLB interaction, it was expected that effective compounds would also cause disruption of the AKAP18δ-PLB complex and decrease PLB-Ser^16 phosphorylation (Lygren et al. in EMBO Reports, volume 8, issue 11, page 1061-1067 (2007). A small selection of hits from the derivatized compounds were tested in this cell-based assay, performed as described in Lygren et al.
Briefly, compounds were added to primary cultures of rat neonatal cardiomyocytes were added compounds about 24 hour prior stimulation with isoproterenol, and amount of phosphorylated Ser^16-PLB was analyzed by western blotting using a pSer^16-PLB phosphospecific antibody. Actin was used as a loading control.
Rat neonatal cardiomyocytes treated with compounds 24 hours prior stimulation with isoproterenol (100 nM, 5 minutes).

SERCA2 = SERCA2 (Rattus norvegicus (Rat), UniProt P11507); experiment: Patch clamp based SERCA2 activity assay in intact adult rat cardiomyocytes; conditions: 10 uM mesylate salt, cell dialysis in the presence of cAMP, preliminary data
Protocol: FIG. 10: Compound 2g regulates SERCA2-activity. A novel patch clamp based technique was performed to directly assess SERCA-activity independently of receptor stimulation in intact cardiomyocytes. By dialyzing cardiomyocytes with a fixed level of cAMP with and without presence of compound 2g, preliminary data indicates ability of compound 2g to regulate SERCA2-activity in intact adult cardiomyocytes.
Adult rat cardiomyocytes were isolated and perfused with external solution (NaCl-125, CsCl 20, D-glucose 5, MgCl2 1, CaCl2 1.8, Hepes 10, 4-aminopyridine 5, probenecid 2, pH 7.4 by NaOH). […] Whole-cell Ca fluorescence measured from voltage-clamped cells was performed with Cairn Research Optoscan Monochromator (Excitation 488 nm, emission 515 nm long pass) (Cain Research Ltd., Faverham, UK). By applying 100 ms square voltage step from −45 to 0 mV at 0.125 Hz by an Axoclamp 2B amplifier (Axon Instruments, Foster City, Calif., USA), basal Ca transients were recorded, and tau values were obtained by monoexponential fitting of the Ca^2+ extrusion phase from regular transients (τ) and caffeine transients (τcaff) after rapid applications of 10 mM caffeine. SERCA2 rate constant were calculated as: k_SERCA=1/τ−1/τcaff.

[3] = test system: PLB-Ser^16 phosphorylation; experiment: PLB-Ser16 phosphorylation in isoproterenol-stimulated rat adult cardiomyocytes; format: cell-based; conditions: Cardiomyocyte, 1 hour prior isoproterenol (10 nM, 5 minutes), read-out: half-maximal effect, inhibition of phospholamban phosphorylation
Protocol: as §1
Following on Example 53, two compounds, 2g and 3d (FIGS. 9A.B and 9C, respectively), were tested in more detail for their ability to interfere with phosphorylation of phospholamban after stimulation of neonatal (FIGS. 9A and 9C) or adult (FIG. 9B) primary cultures of cardiomyocytes.

[4] = Aqueous solubility of free bases and various salts by dissolution at room temperature; format: physicochemical; conditions: water, thermodynamic from solid
Protocol: The aqueous solubility of various amine compounds and their corresponding salts were determined by dissolution of various amounts of the respective compounds at room temperature.

[5] = Aqueous solubility of tribenzylamine and salts quantified by HPLC (AUC); format: physicochemical; conditions: HPLC area under curve
Protocol: Tribenzylamine and the corresponding salts were dissolved in water and the solubility was quantified (area under curve (AUC)) by HPLC
Solubility of Tribenzylamine and its Corresponding HCl and Mesylate Salts, Tested on HPLC.

[6] = 24 hours prior isoproterenol (100 nM, 5 minutes)
[7] = HCl salt, read-out: Solubility HCl salt
[8] = free base, read-out: Solubility free base
[9] = mesylate salt, read-out: Solubility Mesylate salt

Row | solubility [4, 7] | solubility [4, 8] | solubility [4, 9] | Structure (SMILES) | Viability (100 μM) 24 hours [1] | other results
1 |  |  |  | Fc1ccc(CN(Cc2ccncc2)Cc2ccc(F)cc2)cc1 [Compound 2a, N,N-bis(4-fluorobenzyl)-1-(pyridin-4-yl)methanamine] | 0.85 | 
2 |  |  |  | Oc1ccc(O)c(CN(Cc2ccncc2)Cc2cc(O)ccc2O)c1 [Compound 2b, 2,2′-(((pyridin-4-ylmethyl)azanediyl)bis(methylene))bis(benzene-1,4-diol)] | 0.10 | Effect on PLB phosphorylation in cardiomyocytes [2]: −
3 |  |  |  | Fc1ccc(CN(Cc2ccc(F)cc2)Cc2nccs2)cc1 [Compound 2c, N,N-bis(4-fluorobenzyl)-1-(thiazol-2-yl)methanamine] | 1.11 | 
4 |  |  |  | COc1ccc(CN(Cc2ccc(OC)cc2)Cc2nccs2)cc1 [Compound 2d, N,N-bis(4-methoxybenzyl)-1-(thiazol-2-yl)methanamine] | 1.15 | 
5 |  |  |  | COc1ccc(CN(Cc2ccccc2)Cc2ccc(OC)cc2)cc1 [Compound 2e, N-benzyl-N-(4-methoxybenzyl)-1-(4-methoxyphenyl)methanamine] | 1.01 | 
6 |  |  |  | COC(=O)c1ccc(CN(Cc2ccccc2)Cc2ccc(C(=O)OC)cc2)cc1 [Compound 2f, dimethyl 4,4′-((benzylazanediyl)bis(methylene))dibenzoate] | 0.92 | 
7 |  |  |  | CN(C)c1ccc(CN(Cc2ccccc2)Cc2ccc(N(C)C)cc2)cc1 [Compound 2g, 4-((benzyl(4-(dimethylamino)benzyl)amino)methyl)-N,N-dimethylaniline] | 0.56 | IC50 [2]: ~40 µM; effect on PLB phosphorylation [2, 6]: concentration dependent inhibition of PLB-phosphorylation; Effect on PLB phosphorylation in cardiomyocytes [2]: ++; SERCA2 activity (SERCA2): increased SERCA2 activity; IC50 [3]: ~100 µM
8 |  |  |  | CC(c1ccccc1)N(Cc1ccc(N(C)C)cc1)Cc1ccc(N(C)C)cc1 (stereo not shown) [Compound 2h, 4-(((4-(dimethylamino)benzyl)(1-phenylethyl)amino)methyl)-N,N-dimethylaniline] | 0.91 | 
9 |  |  |  | CC(C)(C)c1ccc(CN(Cc2ccncc2)Cc2ccc(F)cc2)cc1 [Compound 3a, N-(4-(tert-butyl)benzyl)-N-(4-fluorobenzyl)-1-(pyridin-4-yl)methanamine] | 0.79 | 
10 |  |  |  | Oc1ccc(O)c(CN(Cc2ccncc2)Cc2ccc(F)cc2)c1 [Compound 3b, 2-(((4-fluorobenzyl)(pyridin-4-ylmethyl)amino)methyl)benzene-1,4-diol] | 0.03 | 
11 |  |  |  | CN(C)c1ccc(CN(Cc2ccccc2)CC(c2ccccc2)c2ccccc2)cc1 [Compound 3c, 4-((benzyl(2,2-diphenylethyl)amino)methyl)-N,N-dimethylaniline] | 0.74 | effect on PLB phosphorylation [2, 6]: somewhat weaker than that of 2g; Effect on PLB phosphorylation in cardiomyocytes [2]: +
12 |  |  |  | CN(C)c1ccc(CN(Cc2ccccc2)Cc2ccc3c(c2)CCO3)cc1 [Compound 3d] | 0.58 | IC50 ([2]; neonatal cardiomyocytes, 24 hours prior isoproterenol (100 nM, 5 minutes)): ~100 µM; effect on PLB phosphorylation [2, 6]: did not appear to have an effect; Effect on PLB phosphorylation in cardiomyocytes [2]: −
13 |  |  |  | COC(=O)c1ccc(CN(Cc2ccccc2)Cc2ccc(F)cc2)cc1 [Compound 3e, methyl 4-((benzyl(4-fluorobenzyl)amino)methyl)benzoate] | 0.57 | 
14 |  |  |  | O=C(O)c1ccc(CN(Cc2ccccc2)Cc2ccc(F)cc2)cc1 [Compound 3f, 4-((benzyl(4-fluorobenzyl)amino)methyl)benzoic acid] | 0.98 | effect on PLB phosphorylation [2, 6]: did not appear to have an effect; Effect on PLB phosphorylation in cardiomyocytes [2]: +
15 |  |  |  | Fc1ccc(CN(Cc2ccccc2)Cc2ccc(-c3ccccc3-c3nn[nH]n3)cc2)cc1 [Compound 3g, 1-(2′-(2H-tetrazol-5-yl)-[1,1′-biphenyl]-4-yl)-N-benzyl-N-(4-fluorobenzyl)methanamine] | 0.80 | 
16 | < 360 µg/mL | < 360 µg/mL | < 360 µg/mL | COC(=O)c1ccc(CN(Cc2ccccc2)Cc2ccc(C(=O)OC)cc2)cc1 [Compound 17, dimethyl 4,4′-((benzylazanediyl)bis(methylene))dibenzoate] |  | 
17 | < 50 µg/mL | < 50 µg/mL | < 50 µg/mL | O=C(O)c1ccc(CN(Cc2ccccc2)Cc2ccc(C(=O)O)cc2)cc1 [Compound 18] |  | 
18 | < 50 µg/mL | < 50 µg/mL | < 50 µg/mL | CC(C)(C)c1ccc(CN(Cc2ccccc2)Cc2ccc(C(C)(C)C)cc2)cc1 [Compound 19, N-benzyl-N-(4-(tert-butyl)benzyl)-1-(4-(tert-butyl)phenyl)methanamine] |  | 
19 | < 3000 µg/mL | < 3000 µg/mL | < 3000 µg/mL | O=[N+]([O-])c1ccc(CN(Cc2ccccc2)Cc2ccc([N+](=O)[O-])cc2)cc1 [Compound 20, N-benzyl-N-(4-nitrobenzyl)-1-(4-nitrophenyl)methanamine] |  | 
20 | 4500 µg/mL | < 50 µg/mL | > 22000 µg/mL | Nc1ccc(CN(Cc2ccccc2)Cc2ccc(N)cc2)cc1 [Compound 22, 4-(((4-aminobenzyl)(benzyl)amino)methyl)aniline] |  | 
21 | 15000 µg/mL | < 50 µg/mL | > 34000 µg/mL | CCN(CC)c1ccc(CN(Cc2ccccc2)Cc2ccc(N(CC)CC)cc2)cc1 [Compound 23, 4-((benzyl(4-(diethylamino)benzyl)amino)methyl)-N,N-diethylaniline] |  | 
22 | < 50 µg/mL | < 50 µg/mL | < 50 µg/mL | Cc1ccc(NC(=O)Nc2ccc(CN(Cc3ccccc3)Cc3ccc(NC(=O)Nc4ccc(C)cc4)cc3)cc2)cc1 [Compound 25, 1,1′-(((benzylazanediyl)bis(methylene))bis(4,1-phenylene))bis(3-(p-tolyl)urea)] |  | 
23 | < 1500 µg/mL | < 1500 µg/mL | < 1500 µg/mL | O=C(Nc1ccc(F)cc1)Nc1ccc(CN(Cc2ccccc2)Cc2ccc(NC(=O)Nc3ccc(F)cc3)cc2)cc1 [Compound 26, 1,1′-(((benzylazanediyl)bis(methylene))bis(4,1-phenylene))bis(3-(4-fluorophenyl)urea)] |  | 
24 | < 500 µg/mL | < 500 µg/mL | < 500 µg/mL | O=C(Nc1ccccc1)Nc1ccc(CN(Cc2ccccc2)Cc2ccc(NC(=O)Nc3ccccc3)cc2)cc1 [Compound 27, 1,1′-(((benzylazanediyl)bis(methylene))bis(4,1-phenylene))bis(3-phenylurea)] |  | 
25 |  |  |  | c1ccc(CN(Cc2ccccc2)Cc2ccccc2)cc1 [Tribenzylamine] |  | AUC HCl salt ([5]; HCl salt dissolved in water): 406 mAu*s; AUC Free base ([5]; free base dissolved in water): ≈0 mAu*s; AUC Mesylate salt ([5]; mesylate salt dissolved in water): 1975 mAu*s

Row | Structure (SMILES) | solubility [4, 7] | solubility [4, 8] | solubility [4, 9] | Viability (100 μM) 24 hours [1] | other results
26 | CN(C)c1ccc(CN(Cc2ccccc2)Cc2ccc(N(C)C)cc2)cc1 [Compound 29, 4-((benzyl(4-(dimethylamino)benzyl)amino)methyl)-N,N-dimethylaniline] | 6000 µg/mL | < 160 µg/mL | 94000 µg/mL |  | 
